The text below walks through data of patent US7468457B2, “Ligand inhibitors of the RAR receptors, process for preparing same and therapeutic/cosmetic applications thereof” (Galderma Research & Development, priority 2002, dated 2008).

Common to all, as to assay type: cell-based
The target in one experiment is T1, RAR BETA (Homo sapiens, UniProt P10826).
T1 sequence (P10826 183-455 limits assumed): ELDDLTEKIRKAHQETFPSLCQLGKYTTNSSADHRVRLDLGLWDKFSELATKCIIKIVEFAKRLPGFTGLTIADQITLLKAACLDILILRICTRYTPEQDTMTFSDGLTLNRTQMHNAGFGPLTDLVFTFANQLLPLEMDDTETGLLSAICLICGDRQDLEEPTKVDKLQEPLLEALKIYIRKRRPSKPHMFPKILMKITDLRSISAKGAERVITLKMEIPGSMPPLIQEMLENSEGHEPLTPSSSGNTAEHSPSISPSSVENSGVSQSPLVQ
The experiment can be described thus: Transactivation test (luciferase reporter, HeLa stable transfectants), RAR beta. The following applies: HeLa cells; for Kd: apparent Kd from Schild regression of crossed curves against reference agonist, read-out: RAR BETA Kd app; for IC50: inhibition at the reference agonist concentration that gives 80% activation. The method, then: (§1) The activation of receptors with an agonist (activator) in HeLa cells leads to the expression of a reporter gene, luciferase, which, in the presence of a substrate, generates light. The activation of the receptors may thus be measured by quantifying the luminescence produced after incubating the cells in the presence of a reference agonist. The inhibitory products displace the agonist from its site, thus preventing activation of the receptor. The activity is measured by quantifying the reduction in light produced. This measurement makes it possible to determine the inhibitory activity of the compounds according to the invention.
(§2) Determination of the Kdapp:
(§3) In this study, a constant is determined which represents the affinity of the molecule for the receptor. Since this value can fluctuate depending on the basal activity and the expression of the receptor, it is referred to as the Kd apparent (KdApp).
(§4) To determine this constant, “crossed curves” of the test product against a reference agonist, 4-[2-(5,5,8,8-tetramethyl-5,6,7,8-tetrahydro-2-naphthyl)propenyl]benzoic acid, are performed in 96-well plates. The test product is used at 10 concentrations and the reference agonist at 7 concentrations. In each well, the cells are in contact with a concentration of the test product and a concentration of the reference agonist, 4-[2-(5,5,8,8-tetramethyl-5,6,7,8-tetrahydro-2-naphthyl)propenyl]benzoic acid. Measurements are also taken for the total agonist (4-[2-(5,5,8,8-tetramethyl-5,6,7,8-tetrahydro-2-naphthyl)propenyl]benzoic acid) and inverse agonist, 4-{(E)-3-[4-(4-tert-butylphenyl)-5,5,8,8-tetramethyl-5,6,7,8-tetrahydro-2-naphthyl]-3-oxopropenyl}benzoic acid, controls.
(§5) These crossed curves make it possible to determine the AC50 values (concentration at which 50% activation is observed) for the reference ligand at various concentrations of test product. These AC50 values are used to calculate the Schild regression by plotting a straight line corresponding to the Schild equation (“quantition in receptor pharmacology” Terry P. Kenakin, Receptors and Channels, 2001,7,371-385).
(§6) In the case of an antagonist, an IC50 value (concentration that inhibits 50% of the activity) is calculated by plotting the curve of the product at the concentration of the reference ligand that gives 80% activation.
(§7) The HeLa cell lines used are stable transfectants containing the plasmids ERE-βGlob-Luc-SV-Neo (reporter gene) and RAR (α, β, γ) ER-DBD-puro. These cells are inoculated into 96-well plates at a rate of 10 000 cells per well in 100 μl of DMEM medium without phenol red, and supplemented with 10% defatted calf serum. The plates are then incubated at 37° C. and 7% CO2 for 4 hours.
(§8) The various dilutions of the test products, of the reference ligand (4-[2-(5,5,8,8-tetramethyl-5,6,7,8-tetrahydro-2-naphthyl)propenyl]benzoic acid), of the 100% control (100 nM 4-[2-(5,5,8,8-tetramethyl-5,6,7,8-tetrahydro-2-naphthyl)propenyl]benzoic acid) and of the 0% control (500 nM 4-{(E)-3-[4-(4-tert-butylphenyl)-5,5,8,8-tetramethyl-5,6,7,8-tetrahydro-2-naphthyl]-3-oxopropenyl}benzoic acid) are added at a rate of 5 μl per well. The plates are then incubated for 18 hours at 37° C. and 7% CO2.
(§9) The culture medium is removed by turning over and 100 μl of a 1:1 PBS/luciferine mixture is added to each well. After 5 minutes, the plates are read using the luminescence detector.
(A reporter such as luciferase makes a cellular process visible.)

For the next experiment, the target named is T2, RAR GAMMA (Homo sapiens, UniProt P13631).
T2 sequence (P13631 185-454 limits assumed): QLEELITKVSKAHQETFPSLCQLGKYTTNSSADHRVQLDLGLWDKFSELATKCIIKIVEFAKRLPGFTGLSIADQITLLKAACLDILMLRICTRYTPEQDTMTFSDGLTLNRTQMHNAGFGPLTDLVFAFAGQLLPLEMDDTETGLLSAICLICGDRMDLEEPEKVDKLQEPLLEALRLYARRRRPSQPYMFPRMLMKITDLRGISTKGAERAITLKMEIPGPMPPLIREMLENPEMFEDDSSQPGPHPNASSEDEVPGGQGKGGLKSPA
The experiment can be described thus: Transactivation test (luciferase reporter, HeLa stable transfectants), RAR gamma. The note with it: HeLa cells; for Kd: apparent Kd from Schild regression of crossed curves against reference agonist, read-out: RAR GAMMA Kd app; for IC50: inhibition at the reference agonist concentration that gives 80% activation. The protocol:
as §1, §2, §3, §4, §5, §6, §7, §8, §9

The next experiment has as its target T3, RAR ALPHA (Homo sapiens, UniProt P10276).
T3 sequence (P10276 183-417 limits assumed): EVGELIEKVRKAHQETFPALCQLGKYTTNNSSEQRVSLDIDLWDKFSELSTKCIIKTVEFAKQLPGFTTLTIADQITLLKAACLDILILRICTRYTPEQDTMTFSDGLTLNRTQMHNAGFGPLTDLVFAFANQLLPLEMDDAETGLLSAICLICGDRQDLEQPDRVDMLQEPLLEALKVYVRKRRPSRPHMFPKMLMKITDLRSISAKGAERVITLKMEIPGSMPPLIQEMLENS
The experiment can be described thus: Transactivation test (luciferase reporter, HeLa stable transfectants), RAR alpha. The following applies: HeLa cells; for Kd: apparent Kd from Schild regression of crossed curves against reference agonist, read-out: RAR ALPHA Kd app; for IC50: inhibition at the reference agonist concentration that gives 80% activation. The method, then: as §1, §2, §3, §4, §5, §6, §7, §8, §9

As usually defined, the IC50 is the point on the concentration scale where inhibition reaches its midpoint. Low readings indicate inhibition by little substance, high ones a need for much substance. As to `Cc1ccc(-c2cc(C(O)C#Cc3ccc(C(=O)O)cc3)cc3c2C(C)(C)CCC3(C)C)cc1` (stereo not drawn) [Ex. 5, 4-[3-Hydroxy-3-(5,5,8,8-tetramethyl-4-p-tolyl-5,6,7,8-tetrahydro-2-naphthyl)-1-propynyl]benzoic Acid], the figures for the Kd at RAR BETA, on RAR GAMMA and at RAR ALPHA were 60 nM, 15 nM and 4000 nM, respectively. Moreover, the IC50 at RAR BETA stood at 96 nM; on RAR GAMMA it was 37.5 nM; at RAR ALPHA, 7000 nM.
Regarding `Cc1ccc(-c2cc(C(=O)/C=C/c3ccc(C(=O)O)cc3)cc3c2C(C)(C)CCC3(C)C)cc1` [Ex. 7], the Kd at RAR BETA stood at 0.25 nM; on RAR GAMMA, 1 nM; on RAR ALPHA, 1 nM. Moreover, the IC50 is 0.4 nM at RAR BETA, 2.5 nM on RAR GAMMA and 1.75 nM on RAR ALPHA.
For the molecule `CC(C)(C)c1ccc(-c2cc(C(=O)/C=C/c3ccc(C(=O)O)cc3)cc3c2C(C)(C)CCC3(C)C)cc1` [Ex. 8, 4-{(E)-3-[4-(4-tert-Butylphenyl)-5,5,8,8-tetramethyl-5,6,7,8-tetrahydro-2-naphthyl]-3-oxopropenyl}benzoic Acid], the Kd was 4 nM on RAR BETA, 0.25 nM on RAR GAMMA and 2 nM on RAR ALPHA. Besides, the IC50 at RAR BETA stood at 6.4 nM; at RAR GAMMA, 0.625 nM; at RAR ALPHA, 3.5 nM.
Consider `Cc1ccc(-c2cc(C(O)/C=C/c3ccc(C(=O)O)cc3)cc3c2C(C)(C)CCC3(C)C)cc1` (stereo not drawn) [Ex. 9, 4-[(E)-3-Hydroxy-3-(5,5,8,8-tetramethyl-4-p-tolyl-5,6,7,8-tetrahydro-2-naphthyl)propenyl]benzoic Acid], for which the Kd is 500 nM at RAR BETA, 30 nM at RAR GAMMA and 250 nM at RAR ALPHA. Further, the IC50 at RAR BETA was 800 nM; on RAR GAMMA it was 75 nM; on RAR ALPHA it was 437 nM.
